Like-named read-outs stand apart in the source and are kept apart here.
Tested on: NF-κB activation
Assay: NF-κB activation reporter assay (pNFκB-Luc luciferase) under TNF-α stimulation
Assay type: cell-based, human
Settings: for inhibition at 1 µg/mL / inhibition at 10 µg/mL: Homo sapiens, read-out: The rate of inhibitory activity against NF-κB activation (%)
Method: Using a transfection reagent (Effectene; QIAGEN), the human hepatoma cell strain HepG2 or the human hysterocarcinoma cell strain HeLa was transfected with the firefly luciferase gene (Luc) contained plasmid (pNF κB-Luc Reporter Plasmid; […]) which contained oligonucleotide having five tandem copies of NF-κB binding sequences ([…]) on a upstream region of Luc, according to the QUAGEN's protocol and it was incuvated for 6-24 hours. After addition of TNF-α (40 ng/ml) with or without the test compound, the cells were incuvated for 4 hours, and intracellular luciferase activity was measured with PicaGene LT (TOYO INK MFG Co., Ltd.) and chemical luminescence measurement device ([…]luor Plus; TECAN). The inhibition ratio was measured as a ratio to the value of the luciferase activity without the test compound.

[1] = Concentration of the agent: 1 μg/mL, HepG2 or HeLa cells, TNF-α 40 ng/ml, 4 hours
[2] = Concentration of the agent: 10 μg/mL, HepG2 or HeLa cells, TNF-α 40 ng/ml, 4 hours

Row | Compound | inhibition at 1 µg/mL [1] | inhibition at 10 µg/mL [2] | further results
1 | 5-Bromo-2-hydroxy-N-(2-phenethyl)benzamide [Compound 2] |  |  | The rate of inhibitory activity against NF-κB activation (%) [1]: 18.6%; The rate of inhibitory activity against NF-κB activation (%) [2]: 83.2%
2 | 5-Bromo-N-(3,5-dichloro)phenyl-2-hydroxybenzenesulfonamide [Compound 10] |  |  | The rate of inhibitory activity against NF-κB activation (%) [1]: 7.1%; The rate of inhibitory activity against NF-κB activation (%) [2]: 78.6%
3 | O=C(NCc1cc(C(F)(F)F)cc(C(F)(F)F)c1)c1cc(Br)ccc1O [Compound 1, N-{[3,5-bis(trifluoromethyl)phenyl]methyl}-5-bromo-2-hydroxybenzamide] | -33.6% | 54.4% | 
4 | O=C(NC1Cc2ccc(C(=O)N3CCOCC3)cc2C1)c1cc(Br)ccc1O (stereo not drawn) [Compound 3, 5-Bromo-2-hydroxy-N-[5-(morpholinocarbonyl)indan-2-yl]benzamide] | 54.2% | 68.4% | 
5 | O=C(CC(c1ccc(O)cc1)c1ccc(Cl)cc1)c1c(O)cccc1O (stereo not drawn) [Compound 4, 3-(4-Chlorophenyl)-1-(2,6-dihydroxyphenyl)-3-(4-hydroxyphenyl)propan-1-one] | 42.9% | 94.1% | 
6 | COc1ccc(CCC(=O)c2cc(Cl)ccc2O)cc1 [Compound 5, 1-(5-Chloro-2-hydroxyphenyl)-3-(4-methoxyphenyl)propan-1-one] | 33.3% | 98% | 
7 | COc1ccc(C(=O)C=Cc2ccccc2OC)c(O)c1 [Compound 6, 1-(2-Hydroxy-4-methoxyphenyl)-3-(2-methoxyphenyl)propen-1-one] | 27.8% | 61.9% | 
8 | Cc1ccc(O)c(C(=O)C=Cc2ccc3c(c2)OCCCO3)c1 [Compound 7, 3-(3,4-Dihydro-2H-benzo[b][1,4]dioxepin-7-yl)-1-(2-hydroxy-5-methylphenyl)propen-1-one] | 30.4% | 68.7% | 
9 | COCc1ccc(C(=O)C=Cc2ccc3c(c2)OCCCO3)c(O)c1 [Compound 8, 3-(3,4-Dihydro-2H benzo[b][1,4]dioxepin-7-yl)-1-[2-hydroxy-4-(methoxylmethyl)phenyl]propen-1-one] | 35.3% | 59.9% | 
10 | C=C(c1ccc(Cl)cc1)c1cc(Cl)ccc1O [Compound 9, 4-Chloro-2-[(4-chlorophenyl)ethen-2-yl]phenol] | 21.9% | 99.2% | 
11 | O=C(Nc1ccccc1O)c1cc(C(F)(F)F)cc(C(F)(F)F)c1 [Compound 11, 3,5-Bis(trifluoromethyl)-N-(2-hydroxyphenyl)benzamide] | 28.4% | 44.1% | 
12 | O=C(Nc1cc(Cl)ccc1O)c1cc(Cl)cc(Cl)c1 [Compound 12, N-(5-Chloro-2-hydroxyphenyl)-3,5-dichlorobenzamide] | 68.6% | 87.3% | 
13 | O=S(=O)(Nc1cc(Cl)ccc1O)c1cc(Cl)cc(Cl)c1 [Compound 13, N-(5-Chloro-2-hydroxyphenyl)-3,5-dichlorobenesulfonamide] |  |  | The rate of inhibitory activity against NF-κB activation (%) [1]: −7.1%; The rate of inhibitory activity against NF-κB activation (%) [2]: 63.8%
14 | Oc1ccc(Br)cc1CNc1cc(Cl)cc(Cl)c1 [Compound 14, N-[(5-Bromo-2-hydroxyphenyl)methyl]-3,5-dichloroaniline] | 21.7% | 98.9% | 
15 | O=C(NN=Cc1ccc(O)cc1O)c1cc(Cl)ccc1O [Compound 15, 5-Chloro-2-hydroxybenzoic acid (2,4-dihydroxybenzylidene)hydrazide] | 15.2% | 70.4% | 
16 | CN(C(=O)c1cc(Cl)ccc1O)c1cc(C(F)(F)F)cc(C(F)(F)F)c1 [Compound 16, N-[3,5-Bis(trifluoromethyl)phenyl]-5-chloro-2-hydroxy-N-methylbenzamide] | 36.4% | 91.6% | 
17 | O=C(c1cc(Br)ccc1O)N1CCCc2ccc(C(F)(F)F)cc21 [Compound 17, 1-(5-Bromo-2-hydroxy)benzoyl-7-(trifluoromethyl)-1,2,3,4-tetrahydroquinoline] |  |  | The rate of inhibitory activity against NF-κB activation (%) [1]: 19.9%; The rate of inhibitory activity against NF-κB activation (%) [2]: 96.5%
18 | O=C(Nc1cc(Cl)cc(Cl)c1)c1c(O)ccc2ccccc12 [Compound 18, N-(3,5-Dichlorophenyl)-2-hydroxy-1-naphthamide] | 85.3% | 90.2% | 
19 | O=C(Nc1cc(Cl)cc(Cl)c1)c1cc2ccccc2cc1O [Compound 19, N-(3,5-Dichlorophenyl)-3-hydroxy-2-naphthamide] | -55.4% | 95.1% | 
20 | COc1cc(NC(=O)c2cc3ccccc3cc2O)cc(OC)c1 [Compound 20, N-(3,5-Dimethoxyphenyl)-3-hydroxy-2-naphthamide] | -12.1% | 86.8% | 
21 | O=C(Nc1cc(C(F)(F)F)cc(C(F)(F)F)c1)c1ccc2ccccc2c1O [Compound 21, N-[3,5-Bis(trifluoromethyl)phenyl]-1-hydroxy-2-naphthamide] | 89.6% | 95% | 
22 | O=C(Nc1ccc(S(=O)(=O)F)cc1)c1ccc2ccccc2c1O [Compound 22, {[(1-Hydroxynaphthalen-2-yl)carbonyl]amino}benzenesulfonyl fluoride] |  |  | The rate of inhibitory activity against NF-κB activation (%) [1]: 37.0%; The rate of inhibitory activity against NF-κB activation (%) [2]: 92.9%
23 | O=C(Nc1ccc(S(=O)(=O)F)cc1)c1cc(N=Nc2cc(Cl)ccc2Cl)c2ccccc2c1O [Compound 23, 4-({[4-(2,5-Dichlorophenyl)azo-1-hydroxynaphthalen-2-yl]-carbonyl}amino)benzenesulfonyl fluoride] |  |  | inhibition at 1 µg/mL (4 h): 75.7%; inhibition at 10 µg/mL (4 h): 96.6%
24 | O=C(Nc1cc(C(F)(F)F)cc(C(F)(F)F)c1)c1cc(Cl)cnc1O [Compound 24, N-[3,5-Bis(trifluoromethyl)phenyl]-5-chloro-2-hydroxypyridine-3-carboxamide] | 58.1% | 82.2% | 
25 | O=C(Nc1cc(C(F)(F)F)ccc1Cl)c1cc(Cl)cnc1O [Compound 25, N-[2-Chloro-5-(trifluoromethyl)phenyl]-5-chloro-2-hydroxynicotinamide] | 85.4% | 86.9% | 
26 | O=C(Nc1cc(C(F)(F)F)cc(C(F)(F)F)c1)c1ncccc1O [Compound 27, N-[3,5-Bis(trifluoromethyl)phenyl]-3-hydroxypyridine-2-carboxamide] | 68.5% | 47.3% | 
27 | O=C(Nc1cc(C(F)(F)F)cc(C(F)(F)F)c1)c1c(O)[nH]c2cc(Cl)ccc12 [Compound 28, N-[3,5-Bis(trifluoromethyl)phenyl]-6-chloro-2-hydroxyindole-3-carboxamide] | 16.3% | 41.7% | 
28 | O=C(Nc1cc(C(F)(F)F)cc(C(F)(F)F)c1)c1nc2ccccc2nc1O [Compound 29, N-[3,5-Bis(trifluoromethyl)phenyl]-3-hydroxyquinoxaline-2-carboxamide] | 46.3% | 73% | 
29 | O=C(Nc1ccc(Cl)cc1)c1cc2c(cc1O)[nH]c1ccccc12 [Compound 30, N-(4-Chlorophenyl)-2-hydroxy-9H-carbazole-3-carboxamide] | 76.5% | 98.1% | 
30 | O=C(Nc1cccc2ccccc12)c1ccccc1O [Compound 31, 2-Hydroxy-N-(1-naphthyl)benzamide] | 13.3% | 93.2% | 

Reference: patent US8097759B2, “Inflammatory cytokine release inhibitor” (Institute of Medicinal Molecular Design, Inc., priority 2000, dated 2012)
